Reference: publication PMC3676766, “New Radioligands for Describing the Molecular Pharmacology of MT1 and MT2 Melatonin Receptors” (International Journal of Molecular Sciences, 2013)
Several values for one entry are separate records, joined by “and”; a condition that tells them apart may be missing. Equal values may be shown once. Read-outs that look alike come from different tables or passages of the source. One block for each compound: values may come before it.

What was measured:
hMT1 [1] = biological target: T1, hMT1 (Homo sapiens, UniProt P48039); assay: Saturation binding of iodinated radioligands, CHO-K1-hMT1 membranes; conditions: Scatchard
T1 construct: expressed in transfected cells; membranes or whole cells
Method: (§1) CHO-K1 cell lines stably expressing the human MT1 or MT2 receptors were grown to confluence, harvested in PBS buffer (Gibco, Invitrogen, Saint-Aubin, France) containing 5 mM EDTA, and centrifuged at 1,000 g for 20 min (4 °C). The resulting pellet was suspended in 5 mM Tris/HCl (pH 7.4) containing 2 mM EDTA and homogenized using Kinematicapolytron. The homogenate was then centrifuged (20,000 g, 30 min, 4 °C) and the resulting pellet suspended in 75 mM Tris/HCl (pH 7.4) containing 2 mM EDTA and 12.5 mM MgCl2. Protein content was determined according to Bradford using the Bio-Rad kit (Bio-Rad SA, Ivry-sur-Seine, France). Aliquots of membrane preparations were stored in re-suspension buffer (75 mM Tris/HCl pH 7.4, 2 mM EDTA, 12.5 mM MgCl2) at −80 °C until use.
The assays were performed in 96-well plates in 250 μL binding buffer (50 mM Tris/HCl pH 7.4, 5 mM MgCl2, 1 mM EDTA, plus BSA 0.1% for [^125I]-DIV880). The membranes, hMT1 and hMT2, were used at a final concentration of 30 μg of proteins/mL for all radioactive compounds. […]
(§2) The data were analyzed using the program PRISM (GraphPad Software Inc., San Diego, CA, USA). For the saturation assay, the binding site density (Bmax) and dissociation constant for the radioligand (Kd) were calculated according to the Scatchard method.

hMT2 [2] = biological target: T2, hMT2 (Homo sapiens, UniProt P49286); assay: Saturation binding of iodinated radioligands, CHO-K1-hMT2 membranes; conditions: Scatchard; for Bmax: saturation
T2 construct: expressed in transfected cells; membranes or whole cells
T2 sequence (P49286 1-362): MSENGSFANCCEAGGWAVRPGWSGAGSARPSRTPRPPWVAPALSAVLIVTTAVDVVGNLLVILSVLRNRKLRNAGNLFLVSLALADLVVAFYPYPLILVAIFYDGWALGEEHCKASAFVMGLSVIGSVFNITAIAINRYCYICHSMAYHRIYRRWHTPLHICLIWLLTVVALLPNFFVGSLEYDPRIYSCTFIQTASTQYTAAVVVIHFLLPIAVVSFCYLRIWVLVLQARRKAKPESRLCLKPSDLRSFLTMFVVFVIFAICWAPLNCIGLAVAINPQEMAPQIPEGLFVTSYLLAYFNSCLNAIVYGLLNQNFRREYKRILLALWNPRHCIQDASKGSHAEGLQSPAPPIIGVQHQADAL
Method: as §1
The assays were performed in 96-well plates in 250 μL binding buffer (50 mM Tris/HCl pH 7.4, 5 mM MgCl2, 1 mM EDTA, plus BSA 0.1% for [^125I]-DIV880). The membranes, hMT1 and hMT2, were used at a final concentration of 30 μg of proteins/mL for all radioactive compounds. For all protocols, the reaction was stopped by rapid filtration through GF/B unifilters (PEI 0.1% treated for [^125I]-DIV880), followed by three successive washes with ice-cold buffer (50 mM Tris/HCl, pH 7.4).
as §2

hMT1 [3] = biological target: T1, hMT1; assay: [125I]-2IMLT competition binding, CHO-K1 membranes, hMT1; conditions: 20 pM [125I]-2IMLT, 2 h 37 °C, mean ± SEM, read-out: Affinity pKi (converted)
Method: as §1
(§3) The assays were described previously. […] The results were expressed as the inhibition constant Ki, taking into account the concentration of radioligand used in each experiment. Non-specific binding was defined using 10 μM melatonin. The reaction was stopped by rapid filtration through GF/B unifilters, followed by three successive washes with ice-cold buffer. The data were analyzed using the program PRISM (GraphPad Software Inc., San Diego, CA, USA).

hMT2 [4] = biological target: T2, hMT2; assay: [125I]-2IMLT competition binding, CHO-K1 membranes, hMT2; conditions: for Difference in affinity MT2 versus MT1: Ki/pKi better for MT2 than for MT1; for Ki: hMT2
Method: as §1, §3

hMT1 [5] = biological target: T1, hMT1; assay: [35S]-GTPγS binding assay, hMT1; type: biochemical; conditions: for EC50: mean ± SEM, read-out: [35S]-GTPγS pEC50 (converted); for Emax / [35S]-GTPγS Emax (%): percentage of melatonin (1 μM = 100%)
Method: (§4) CHO-K1 cell lines stably expressing the human MT1 or MT2 receptors were grown to confluence, harvested in PBS buffer (Gibco, Invitrogen, Saint-Aubin, France) containing 5 mM EDTA, and centrifuged at 1,000 g for 20 min (4 °C). The resulting pellet was suspended in 5 mM Tris/HCl (pH 7.4) containing 2 mM EDTA and homogenized using Kinematicapolytron. […] Protein content was determined according to Bradford using the Bio-Rad kit (Bio-Rad SA, Ivry-sur-Seine, France).
(§5) For the [^35S]-GTPγS binding assay, the membranes and compounds were diluted in the binding buffer (20 mM Hepes pH 7.4, 100 mM NaCl, 3 mM MgCl2, 3 μM GDP) in the presence of 20 μg/mL saponin in order to enhance the agonist-induced stimulation. Incubation was started by adding 0.1 nM [^35S]-GTPγS to the membranes and ligands in a final volume of 250 μL and allowed to continue for 60 min at room temperature. Non-specific binding was assessed using non-radiolabeled GTPγS (10 μM). Reactions were stopped by rapid filtration through GF/B unifilters pre-soaked with distilled water, followed by three successive washes with ice-cold buffer.

hMT2 [6] = biological target: T2, hMT2; assay: [35S]-GTPγS binding assay, hMT2; type: biochemical; conditions: for EC50: mean ± SEM, read-out: [35S]-GTPγS pEC50 (converted); for Emax / [35S]-GTPγS Emax (%): percentage of melatonin (1 μM = 100%)
Method: as §4, §5

hMT1 [7] = biological target: T1, hMT1; assay: HTRF (TR-FRET) cAMP assay, CHO-K1 cells expressing hMT1; type: cell-based; conditions: 5 μM forskolin; for EC50: read-out: TR-FRET-cAMP pEC50 (converted)
Method: (§6) Cellular cAMP production was measured using cAMP dynamic HTRF kits (Cisbio Bioassays, Bedford, MA, USA) according to the manufacturer’s instructions. CHO-K1 cells stably expressing the hMT1 or hMT2 receptor were grown to confluence, harvested in PBS buffer containing 5 mM EDTA, and centrifuged at 100× g for 10 min (4 °C). […] Next, 15 μL of cAMP-d2 conjugate and 15 μL of anti-cAMP-EuK conjugate in lysis buffer were incubated for 30 min at room temperature. […] Non-specific binding was assessed using 100 μM non-labeled cAMP. The data were analyzed using the program PRISM to yield the EC50 and Emax.

hMT2 [8] = biological target: T2, hMT2; assay: HTRF (TR-FRET) cAMP assay, CHO-K1 cells expressing hMT2; type: cell-based; conditions: 5 μM forskolin; for TR-FRET-cAMP Emax (%) / EC50: hMT2; for EC50: read-out: TR-FRET-cAMP pEC50 (converted)
Method: as §6

[9] = tested on: standard set of receptors and a small number of enzymatic targets; assay: Standard selectivity procedure (Cerep panel); type: binding; conditions: at 10 μM, cold compounds, transporters, channels, caspase-3, EGFR kinase, PKCα
Source text: […]

[10] = 20 pM [125I]-2IMLT, 2 h 37 °C, mean ± SEM, read-out: Affinity pKi (converted)
[11] = hMT1, read-out: [35S]-GTPγS Emax (%)
[12] = CHO-K1, hMT2, read-out: TR-FRET-cAMP Emax (%)
[13] = CHO-K1, read-out: TR-FRET-cAMP Emax (%), hMT1
[14] = CHO-K1, read-out: TR-FRET-cAMP Emax (%), hMT2

T1 sequence (P48039 whole entry): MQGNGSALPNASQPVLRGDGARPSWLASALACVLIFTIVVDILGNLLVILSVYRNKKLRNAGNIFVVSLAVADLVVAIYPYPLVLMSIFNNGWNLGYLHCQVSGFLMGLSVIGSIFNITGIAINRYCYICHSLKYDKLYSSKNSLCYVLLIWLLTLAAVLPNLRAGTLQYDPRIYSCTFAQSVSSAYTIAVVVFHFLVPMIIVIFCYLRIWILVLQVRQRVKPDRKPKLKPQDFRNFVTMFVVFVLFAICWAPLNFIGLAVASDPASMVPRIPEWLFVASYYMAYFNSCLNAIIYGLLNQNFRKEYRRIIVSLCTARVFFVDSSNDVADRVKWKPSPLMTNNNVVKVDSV

Structure (SMILES): COc1ccc2[nH]c([125I])c(CCNC(C)=O)c2c1 [[^125I]-2IMLT, 2-[^125I]-iodomelatonin]
Bmax (hMT1 [1]): 688 fmol/mg of protein and 688 ± 153 fmol/mg of protein
Bmax (hMT2 [2]): 1,998 ± 318 fmol/mg of protein

Structure (SMILES): COc1ccc2[nH]c(-c3cccc4ccccc34)c(CCNC(=O)C[125I])c2n1 [[^125I]-S70254]
pKd (hMT2 [2]; saturation 0.01–2 nM radioligand): 9.61 ± 0.14
Bmax (hMT2 [2]): 1,778 ± 87 fmol/mg of protein

Ki (hMT1 [3]): 562 nM
Difference in affinity MT2 versus MT1 (hMT2 [4]): at least 2 logs
Ki (hMT2 [4]; [10]): 7.24 nM
EC50 (hMT1 [5]; hMT1): > 10000 nM
EC50 (hMT2 [6]): 12.3 nM
Emax (hMT2 [6]): 58 ± 2%
Structure (SMILES): COc1cc(Br)c(Cc2cc(OC)c(OC)cc2CC(=O)OC(C)(C)C)cc1OC [DIV879, Tert-butyl 2-(2-[(2-bromo-4,5-dimethoxyphenyl)methyl]-4,5-dimethoxyphenyl) Acetate]

Ki (hMT1 [3]): 661 nM
Ki (hMT2 [4]; [10]): 1.86 nM
EC50 (hMT1 [5]; hMT1): 79.4 nM
Emax (hMT1 [5]; [11]): 15 ± 2%
EC50 (hMT2 [6]): 2.04 nM
Emax (hMT2 [6]): 43 ± 1%
Emax (hMT1 [7]; CHO-K1, hMT1, read-out: TR-FRET-cAMP Emax (%)): 78 ± 12%
EC50 (hMT1 [7]; hMT1): 1450 nM
Emax (hMT2 [8]; [12]): 73%
TR-FRET-cAMP Emax (%) (hMT2 [8]): 76.5 ± 1%
EC50 (hMT2 [8]): 33.9 nM
effect on selectivity panel targets [9]: less than 20%
Structure (SMILES): COc1ccc2[nH]c(-c3cccc4ccccc34)c(CCNC(=O)CI)c2n1 [S70254, 2-iodo-N-2-[5-methoxy-2-(naphthalen-1-yl)-1H-pyrrolo[3,2-b]pyridine-3-yl] Acetamide]

Ki (hMT1 [3]): 832 nM
Difference in affinity MT2 versus MT1 (hMT2 [4]): 2 logs
Ki (hMT2 [4]; [10]): 9.55 nM
Ki (hMT2 [4]; approximate range in text, read-out: affinity for MT2 (range given)): ~10 nM
EC50 (hMT1 [5]; hMT1): 1260 nM
Emax (hMT1 [5]; [11]): 10 ± 1%
EC50 (hMT2 [6]): 10.7 nM
Emax (hMT2 [6]): 67 ± 8%
EC50 (hMT1 [7]; hMT1): > 10000 nM
Emax (hMT2 [8]; [12]): 97 ± 1%
EC50 (hMT2 [8]): 16.2 nM
effect on selectivity panel targets [9]: less than 20%
Structure (SMILES): COc1cc(I)c(Cc2cc(OC)c(OC)cc2CC(=O)OC(C)(C)C)cc1OC [DIV880]

Structure (SMILES): COc1ccc2[nH]cc(CCNC(=O)CI)c2c1 [SD6, N-[2-(5-methoxy-1H-indol-3-yl)ethyl]iodoacetamide]
[35S]-GTPγS Emax (%) (hMT1 [5]; hMT1): 115 ± 10%
Emax (hMT1 [5]; [11]): > 100%
Emax (hMT2 [6]): > 100%
[35S]-GTPγS Emax (%) (hMT2 [6]): 114 ± 16%
Emax (hMT1 [7]; [13]): ~100%
TR-FRET-cAMP Emax (%) (hMT1 [7]; hMT1): 103 ± 10%
Emax (hMT2 [8]; [14]): ~100%
TR-FRET-cAMP Emax (%) (hMT2 [8]): 103 ± 1%
Bmax (hMT1 [1]): 276 fmol/mg of protein

[35S]-GTPγS Emax (%) (hMT1 [5]; hMT1): 108 ± 3%
Emax (hMT1 [5]; read-out: [35S]-GTPγS Emax (%), hMT1): > 100%
[35S]-GTPγS Emax (%) (hMT2 [6]): 121 ± 13%
Emax (hMT1 [7]; [13]): ~100%
Emax (hMT2 [8]; [14]): ~100%
Structure (SMILES): COc1ccc2[nH]c(I)c(CCNC(C)=O)c2c1 [2IMLT, 2-iodomelatonin, reference compound]
